# Laboratory results reported in US20240168030A1, “DIRECT FLUORESCENT GLYCAN LABELING” (BIO-TECHNE CORPORATION, priority 2019, published 2024).
# Experiments:
# Type in all cases: biochemical
# ST3Gal2 = target: T1, ST3Gal2 (Homo sapiens, UniProt Q16842); assay: DFGL with fluorophore-conjugated sialic acid by ST3Gal2; parameters: key: +++: indicated by + and − signs only; ++: indicated by + and − signs only; indicated by + and − signs only; indicated by + and − signs only; details: fluorophore-conjugated sialic acid donor; acceptor Gal of Core-1 O-glycan; fluorescence intensity of labeled fetuin or asialofetuin in FIG. 2
# T1 construct: purchased R&D Systems (Bio-Techne, Minneapolis, MN)
# T1 sequence (Q16842 1-350): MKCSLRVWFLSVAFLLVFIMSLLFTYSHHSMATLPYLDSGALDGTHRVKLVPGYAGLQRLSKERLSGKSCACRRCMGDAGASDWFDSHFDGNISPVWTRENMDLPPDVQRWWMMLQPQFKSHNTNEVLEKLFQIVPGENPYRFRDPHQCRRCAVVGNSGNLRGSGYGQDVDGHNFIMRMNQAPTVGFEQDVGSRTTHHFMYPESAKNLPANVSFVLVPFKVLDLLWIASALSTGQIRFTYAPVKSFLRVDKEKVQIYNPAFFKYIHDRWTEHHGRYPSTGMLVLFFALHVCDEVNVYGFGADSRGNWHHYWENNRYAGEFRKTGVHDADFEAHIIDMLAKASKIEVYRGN
# ST6GalNAc1 = target: T2, ST6GalNAc1 (Homo sapiens, UniProt Q9NSC7); assay: DFGL with fluorophore-conjugated sialic acid by ST6GalNAc1; parameters: key: +++: indicated by + and − signs only; ++: indicated by + and − signs only; indicated by + and − signs only; indicated by + and − signs only; details: fluorophore-conjugated sialic acid donor; acceptor O-GalNAc, sialylation on terminal Gal is flexible; FIG. 2
# T2 construct: purchased R&D Systems (Bio-Techne, Minneapolis, MN)
# T2 sequence (Q9NSC7 1-600): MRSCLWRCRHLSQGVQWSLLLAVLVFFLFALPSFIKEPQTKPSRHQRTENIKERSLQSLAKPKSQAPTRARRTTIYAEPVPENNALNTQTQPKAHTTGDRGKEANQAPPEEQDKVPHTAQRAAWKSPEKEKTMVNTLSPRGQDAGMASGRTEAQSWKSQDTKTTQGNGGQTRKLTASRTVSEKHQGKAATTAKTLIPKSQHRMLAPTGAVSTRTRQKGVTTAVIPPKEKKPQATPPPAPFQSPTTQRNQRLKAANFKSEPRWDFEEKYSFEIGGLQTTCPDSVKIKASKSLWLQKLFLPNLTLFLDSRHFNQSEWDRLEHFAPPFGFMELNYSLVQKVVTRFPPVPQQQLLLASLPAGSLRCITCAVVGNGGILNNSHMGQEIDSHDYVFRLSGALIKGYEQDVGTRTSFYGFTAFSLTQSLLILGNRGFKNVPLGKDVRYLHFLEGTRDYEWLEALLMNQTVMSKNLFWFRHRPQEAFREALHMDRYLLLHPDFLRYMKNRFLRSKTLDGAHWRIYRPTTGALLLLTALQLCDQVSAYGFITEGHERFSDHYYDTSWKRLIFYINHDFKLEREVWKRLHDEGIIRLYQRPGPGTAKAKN
# ST3Gal1 = target: T3, ST3Gal1 (Homo sapiens, UniProt Q11201); assay: Direct fluorescent glycan labeling (DFGL) with fluorophore-conjugated sialic acid by ST3Gal1; parameters: key to Relative tolerance of the fluorophore by ST3Gal1: +++: indicated by + and − signs only; ++: indicated by + and − signs only; indicated by + and − signs only; indicated by + and − signs only; details: fluorophore-conjugated sialic acid donor; acceptor Gal of Core-1 O-glycan; fluorescence intensity of labeled fetuin or asialofetuin in FIG. 2
# T3 construct: purchased R&D Systems (Bio-Techne, Minneapolis, MN)
# T3 sequence (Q11201 1-340): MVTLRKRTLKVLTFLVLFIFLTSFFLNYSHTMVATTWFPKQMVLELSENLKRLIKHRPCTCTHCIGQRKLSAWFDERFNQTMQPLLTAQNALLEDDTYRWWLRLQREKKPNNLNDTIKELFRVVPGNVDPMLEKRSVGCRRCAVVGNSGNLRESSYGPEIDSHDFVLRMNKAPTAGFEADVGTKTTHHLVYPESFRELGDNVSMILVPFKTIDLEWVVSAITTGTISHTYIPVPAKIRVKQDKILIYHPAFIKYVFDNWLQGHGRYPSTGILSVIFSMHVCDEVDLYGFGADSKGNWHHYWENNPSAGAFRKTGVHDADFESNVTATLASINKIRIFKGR
# ST6Gal1 = target: T4, ST6Gal1 (Homo sapiens, UniProt P15907); assay: DFGL with fluorophore-conjugated sialic acid by ST6Gal1; parameters: key to Relative tolerance of the fluorophore by ST6Gal1: +++: indicated by + and − signs only; ++: indicated by + and − signs only; indicated by + and − signs only; indicated by + and − signs only; details: fluorophore-conjugated sialic acid donor; acceptor Gal of N-glycan; fluorescence intensity of labeled fetuin or asialofetuin in FIG. 2
# T4 construct: purchased R&D Systems (Bio-Techne, Minneapolis, MN)
# T4 sequence (P15907 1-406): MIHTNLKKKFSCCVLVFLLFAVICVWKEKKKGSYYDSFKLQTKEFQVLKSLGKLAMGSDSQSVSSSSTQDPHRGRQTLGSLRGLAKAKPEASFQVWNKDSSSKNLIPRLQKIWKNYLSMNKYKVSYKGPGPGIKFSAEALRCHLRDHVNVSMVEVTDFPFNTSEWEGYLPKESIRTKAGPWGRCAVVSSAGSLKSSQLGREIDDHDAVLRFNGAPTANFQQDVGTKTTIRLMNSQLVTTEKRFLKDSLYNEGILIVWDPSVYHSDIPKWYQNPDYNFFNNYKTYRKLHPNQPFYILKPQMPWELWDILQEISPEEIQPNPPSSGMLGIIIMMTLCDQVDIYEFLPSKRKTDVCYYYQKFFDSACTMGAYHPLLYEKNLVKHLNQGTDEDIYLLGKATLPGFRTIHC
# ST6GalNAc2 = target: T5, ST6GalNAc2 (Homo sapiens, UniProt Q9UJ37); assay: DFGL with fluorophore-conjugated sialic acid by ST6GalNAc2; parameters: key: +++: indicated by + and − signs only; ++: indicated by + and − signs only; indicated by + and − signs only; indicated by + and − signs only; details: fluorophore-conjugated sialic acid donor; acceptor O-GalNAc, sialylation on terminal Gal is flexible; FIG. 2
# T5 sequence (Q9UJ37 1-374): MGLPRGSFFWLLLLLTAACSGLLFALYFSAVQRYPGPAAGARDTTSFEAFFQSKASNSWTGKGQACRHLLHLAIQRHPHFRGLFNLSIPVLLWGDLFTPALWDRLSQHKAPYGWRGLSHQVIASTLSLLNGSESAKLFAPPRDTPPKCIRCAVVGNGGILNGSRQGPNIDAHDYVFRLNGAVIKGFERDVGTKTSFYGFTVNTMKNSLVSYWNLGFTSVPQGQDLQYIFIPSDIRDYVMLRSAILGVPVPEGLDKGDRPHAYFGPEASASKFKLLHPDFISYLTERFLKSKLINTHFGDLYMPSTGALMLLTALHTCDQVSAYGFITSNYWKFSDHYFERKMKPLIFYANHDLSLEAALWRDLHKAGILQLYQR
# ST6GalNAc4 = target: T6, ST6GalNAc4 (Homo sapiens, UniProt Q9H4F1); assay: DFGL with fluorophore-conjugated sialic acid by ST6GalNAc4; parameters: key to Relative tolerance of the fluorophore by ST6GalNAc4: +++: indicated by + and − signs only; ++: indicated by + and − signs only; indicated by + and − signs only; indicated by + and − signs only; details: fluorophore-conjugated sialic acid donor; acceptor O-GalNAc, with sialylated terminal Gal; FIG. 2
# T6 construct: purchased R&D Systems (Bio-Techne, Minneapolis, MN)
# T6 sequence (Q9H4F1 1-302): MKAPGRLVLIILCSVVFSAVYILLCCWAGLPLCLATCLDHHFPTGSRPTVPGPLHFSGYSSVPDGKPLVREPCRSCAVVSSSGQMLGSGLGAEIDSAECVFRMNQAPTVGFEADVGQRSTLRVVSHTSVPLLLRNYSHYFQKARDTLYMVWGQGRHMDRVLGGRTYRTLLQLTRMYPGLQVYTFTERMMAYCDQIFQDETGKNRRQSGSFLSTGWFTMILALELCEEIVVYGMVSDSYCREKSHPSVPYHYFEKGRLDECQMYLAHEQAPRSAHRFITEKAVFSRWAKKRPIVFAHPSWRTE
# ST3Gal4 = target: T7, ST3Gal4 (Homo sapiens, UniProt Q11206); assay: DFGL with fluorophore-conjugated sialic acid by ST3Gal4; parameters: key: +++: indicated by + and − signs only; ++: indicated by + and − signs only; indicated by + and − signs only; indicated by + and − signs only; details: fluorophore-conjugated sialic acid donor; acceptor Gal of N-glycan; fluorescence intensity of labeled fetuin or asialofetuin in FIG. 2
# T7 construct: purchased R&D Systems (Bio-Techne, Minneapolis, MN)
# T7 sequence (Q11206 1-333): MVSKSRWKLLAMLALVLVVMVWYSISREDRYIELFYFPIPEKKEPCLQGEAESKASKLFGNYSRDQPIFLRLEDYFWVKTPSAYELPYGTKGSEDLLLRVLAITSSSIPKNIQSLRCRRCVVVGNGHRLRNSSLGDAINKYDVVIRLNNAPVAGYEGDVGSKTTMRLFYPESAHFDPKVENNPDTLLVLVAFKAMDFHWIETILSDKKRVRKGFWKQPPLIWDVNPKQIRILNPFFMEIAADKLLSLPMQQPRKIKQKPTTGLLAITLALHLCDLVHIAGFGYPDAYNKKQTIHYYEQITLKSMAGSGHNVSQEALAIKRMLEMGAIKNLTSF
substance,measurement,setting,value
cytidine monophosphate activated Alexa-Fluor®488-conjugated sialic acid [CMP-AF488-SA],Relative tolerance of the fluorophore by ST3Gal2,ST3Gal2,+++
same,Relative tolerance of the fluorophore by ST6GalNAc1,ST6GalNAc1,++
same,Relative tolerance of the fluorophore by ST3Gal1,ST3Gal1,+
same,Relative tolerance of the fluorophore by ST6Gal1,ST6Gal1,+++
same,Relative tolerance of the fluorophore by ST6GalNAc2,ST6GalNAc2,−
same,Relative tolerance of the fluorophore by ST6GalNAc4,ST6GalNAc4,+
same,Relative tolerance of the fluorophore by ST3Gal4,ST3Gal4,+
